These results are taken from patent US10807970B2 (priority 2016, dated 2020).

Like-named read-outs stand apart in the source and are kept apart here.

The assay has as its target human σ1 receptor (Homo sapiens, UniProt Q99720). As to the kind of experiment: Human σ1 receptor radioligand assay ([3H](+)-pentazocine, transfected HEK-293 membranes). Type of assay: binding. Also noted: μ and σ1 dual binding: key to the marks not given beside the values. The conditions noted are these: one class symbol for both Ki-σ1 (human σ1 receptor, A1) and Ki-μ (human μ-opioid receptor, A2). The protocol: Human σ1 Receptor Radioligand Assay
To investigate binding properties of test compounds to human σ1 receptor, transfected HEK-293 membranes and [^3H](+)-pentazocine (Perkin Elmer, NET-1056), as the radioligand, were used. The assay was carried out with 7 μg of membrane suspension, 5 nM of [^3H](+)-pentazocine in either absence or presence of either buffer or 10 μM Haloperidol for total and non-specific binding, respectively. Binding buffer contained Tris-HCl 50 mM at pH 8. Plates were incubated at 37° C. for 120 minutes. After the incubation period, the reaction mix was then transferred to MultiScreen HTS, FC plates (Millipore), filtered and plates were washed 3 times with ice-cold 10 mM Tris-HCL (pH7.4). Filters were dried and counted at approximately 40% efficiency in a MicroBeta scintillation counter (Perkin-Elmer) using EcoScint liquid scintillation cocktail

Where [1] appears, read: read-out: μ and σ1 dual binding.

Sequence of human σ1 receptor (Q99720 whole entry): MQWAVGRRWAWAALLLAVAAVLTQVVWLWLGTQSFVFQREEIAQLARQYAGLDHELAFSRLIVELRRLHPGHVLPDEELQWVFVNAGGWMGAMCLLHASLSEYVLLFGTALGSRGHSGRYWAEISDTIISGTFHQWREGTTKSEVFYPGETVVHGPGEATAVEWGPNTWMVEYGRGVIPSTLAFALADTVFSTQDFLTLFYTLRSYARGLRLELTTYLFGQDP

Consider `C[C@H]1C[C@@](C(=O)c2ccccn2)(C2CCN(Cc3ccccc3)CC2)CCO1` [Example 152], for which the “μ and σ1 dual binding” value is “++”.
Turning to `c1ccc(CN2CCC(C3(c4ccccn4)CCOCC3)CC2)cc1` [Example 124, 2-(4-(1-benzylpiperidin-4-yl)tetrahydro-2H-pyran-4-yl)pyridine], the “μ and σ1 dual binding” value is on record as “++”.
As to `CCC1(N2CCN(CCC(C)C)CC2)CCOCC1` [Example 180, 1-(4-ethyltetrahydro-2H-pyran-4-yl)-4-isopentylpiperazine], the “μ and σ1 dual binding” value is given as “++”.
For the compound `CC(C)CCN1CCN([C@]2(C)CCO[C@@H](C)C2)CC1` [Example 162, 1-((2S,4R)-2,4-dimethyltetrahydro-2H-pyran-4-yl)-4-isopentylpiperazine], the “μ and σ1 dual binding” value is listed as “++”.
Same read-out and setting: with `CCC1(N2CCN(CCC(C)C)CC2)CCOC(C)(C)C1` (stereo not drawn) [Example 78, 1-(4-ethyl-2,2-dimethyltetrahydro-2H-pyran-4-yl)-4-isopentylpiperazine] the entry was “++”.
In the case of `CC1(C)CC(C(=O)c2ccccn2)(N2CCN(CCOCC(F)(F)F)CC2)CCO1` (stereo not drawn) [Example 69, (2,2-dimethyl-4-(4-(2-(2,2,2-trifluoroethoxy)ethyl)piperazin-1-yl)tetrahydro-2H-pyran-4-yl)(pyridin-2-yl)methanone], the “μ and σ1 dual binding” value is recorded as “++”.
As to `CC1(C)CC(C(=O)c2ccccn2)(N2CCN(Cc3cccnc3)CC2)CCO1` (stereo not drawn) [Example 58, (2,2-dimethyl-4-(4-(pyridin-3-ylmethyl)piperazin-1-yl)tetrahydro-2H-pyran-4-yl)(pyridin-2-yl)methanone], the Ki under setting [1] was more than 0.5 µM.
In the case of `CC1(C)CC(C)(N2CCN(Cc3ccccc3)CC2)CCO1` (stereo not drawn) [Example 36, 1-benzyl-4-(2,2,4-trimethyltetrahydro-2H-pyran-4-yl)piperazine], the “μ and σ1 dual binding” value is “++”.
In the case of `c1ccc(C2(N3CCN(Cc4cccnc4)CC3)CCOC3(CCCC3)C2)cc1` (stereo not drawn) [Example 119, 1-(9-phenyl-6-oxaspiro[4.5]decan-9-yl)-4-(pyridin-3-ylmethyl)piperazine], the “μ and σ1 dual binding” value is “++”.
On the same count and under the same terms, under `CCC1(N2CCN(Cc3ccc(F)cc3)CC2)CCOCC1` [Example 175, 1-(4-ethyltetrahydro-2H-pyran-4-yl)-4-(4-fluorobenzyl)piperazine] stands “++”.
Compound `CC(C)COCCN1CCN([C@]2(C(=O)c3ccccn3)CCOC(C)(C)C2)CC1` [Example 137, (R)-(4-(4-(2-isobutoxyethyl)piperazin-1-yl)-2,2-dimethyltetrahydro-2H-pyran-4-yl)(pyridin-2-yl)methanone] registered a Ki (μ and σ1 dual binding) of less than 0.5 µM.
Consider `CC(C)CCN1CCN([C@@]2(C(=O)c3ccccn3)CCO[C@H](C)C2)CC1` [Example 97], for which the “μ and σ1 dual binding” value was “++”.
`CC1(C)C[C@](C(=O)c2ccccn2)(N2CCN(Cc3ccccc3)CC2)CCO1` [Example 3, (R)-(4-(4-benzylpiperazin-1-yl)-2,2-dimethyltetrahydro-2H-pyran-4-yl)(pyridin-2-yl)methanone] showed a Ki (μ and σ1 dual binding) of less than 0.1 µM.
`c1ccc(CN2CCN(C3(c4ccccc4)CCOCC3)CC2)cc1` [Example 30, 1-benzyl-4-(4-phenyltetrahydro-2H-pyran-4-yl)piperazine]: the “μ and σ1 dual binding” value was “++”.
On to `COc1ccc(CN2CCN(C3(C(=O)c4ccccn4)CCOCC3)CC2)cc1` [Example 195, (4-(4-(4-methoxybenzyl)piperazin-1-yl)tetrahydro-2H-pyran-4-yl)(pyridin-2-yl)methanone], for which the Ki under setting [1] is more than 0.5 µM.
The compound `CC1(C)CC(Cc2ccccc2)(N2CCN(Cc3ccccc3)CC2)CCO1` (stereo not drawn) [Example 40, 1-benzyl-4-(4-benzyl-2,2-dimethyltetrahydro-2H-pyran-4-yl)piperazine] yielded a Ki (μ and σ1 dual binding) of less than 0.1 µM.
`CC[C@@]1(N2CCN(Cc3ccccc3)CC2)CCO[C@@H](C)C1` [Example 164, 1-benzyl-4-((2S,4R)-4-ethyl-2-methyltetrahydro-2H-pyran-4-yl)piperazine]: the “μ and σ1 dual binding” value is reported as “++”.
Compound `CC(C)OCCN1CCCN(C2(C(=O)c3ccccn3)CCOC(C)(C)C2)CC1` (stereo not drawn) [Example 88, (4-(4-(2-isopropoxyethyl)-1,4-diazepan-1-yl)-2,2-dimethyltetrahydro-2H-pyran-4-yl)(pyridin-2-yl)methanone] displayed a Ki (μ and σ1 dual binding) of less than 0.5 µM.
Same read-out and setting: with `CN(Cc1ccccc1)[C@H]1CCN([C@@]2(C(=O)c3ccccn3)CCOC(C)(C)C2)C1` [Example 140, ((S)-4-((S)-3-(benzyl(methyl)amino)pyrrolidin-1-yl)-2,2-dimethyltetrahydro-2H-pyran-4-yl)(pyridin-2-yl)methanone] the figure was less than 0.5 µM.
Consider `CC(C)OCCN1CCN([C@@]2(C(=O)c3ccccn3)CCOC2)CC1` [Example 243, (S)-(3-(4-(2-isopropoxyethyl)piperazin-1-yl)tetrahydrofuran-3-yl)(pyridin-2-yl)methanone], for which the “μ and σ1 dual binding” value was “++”.
With `CC[C@]1(N2CCN(CCC(C)C)CC2)CCO[C@@H](C)C1` [Example 159, 1-((2S,4S)-4-ethyl-2-methyltetrahydro-2H-pyran-4-yl)-4-isopentylpiperazine], the “μ and σ1 dual binding” value is “++”.
On to `CC(C)CCN1CCN(C2(C)CCOCC2)CC1` [Example 178, 1-isopentyl-4-(4-methyltetrahydro-2H-pyran-4-yl)piperazine], for which the “μ and σ1 dual binding” value was “++”.
On to `CC[C@@]1(N2CCN(Cc3ccc(C#N)cc3)CC2)CCO[C@@H](C)C1` [Example 250, 4-((4-((2S,4R)-4-ethyl-2-methyltetrahydro-2H-pyran-4-yl)piperazin-1-yl)methyl)benzonitrile], for which, under setting [1], the Ki was more than 0.5 µM.
As for `CC1(C)CC(C(=O)c2ccccn2)(N2CCN(Cc3ccccc3)CC2)CCO1` (stereo not drawn) [Example 1, (4-(4-benzylpiperazin-1-yl)-2,2-dimethyltetrahydro-2H-pyran-4-yl)(pyridin-2-yl)methanone], the Ki (μ and σ1 dual binding) is less than 0.1 µM.
Compound `CC1(C)CC(C(=O)c2ccccn2)(N2CCN(CCC3CC3)CC2)CCO1` (stereo not drawn) [Example 128, (4-(4-(2-cyclopropylethyl)piperazin-1-yl)-2,2-dimethyltetrahydro-2H-pyran-4-yl)(pyridin-2-yl)methanone] displayed a Ki (μ and σ1 dual binding) of less than 0.5 µM.
For `CC(C)C1(N2CCN(CCc3ccccc3F)CC2)CCOC(C)(C)C1` (stereo not drawn) [Example 89, 1-(2-fluorophenethyl)-4-(4-isopropyl-2,2-dimethyltetrahydro-2H-pyran-4-yl)piperazine], the Ki (μ and σ1 dual binding) is less than 0.5 µM.
Regarding `CC(C)CN1CCN(C2(Cc3ccccc3)CCOC3(CCCC3)C2)CC1` (stereo not drawn) [Example 123, 1-(9-benzyl-6-oxaspiro[4.5]decan-9-yl)-4-isobutylpiperazine], the “μ and σ1 dual binding” value is “++”.
As for `O=C(c1ccccn1)C1(N2CCN(Cc3ccc(OC(F)(F)F)cc3)CC2)CCOCC1` [Example 194, pyridin-2-yl(4-(4-(4-(trifluoromethoxy)benzyl)piperazin-1-yl)tetrahydro-2H-pyran-4-yl)methanone], under setting [1], the Ki was more than 0.5 µM.
`CCC1(N2CCN(Cc3ccccc3)CC2)CCOC2(CCCC2)C1` (stereo not drawn) [Example 29, 1-benzyl-4-(9-ethyl-6-oxaspiro[4.5]decan-9-yl)piperazine] had a Ki (μ and σ1 dual binding) of less than 0.5 µM.
As for `CC1(C)CC(CCO)(N2CCN(CCc3ccccc3)CC2)CCO1` (stereo not drawn) [Example 48, 2-(2,2-dimethyl-4-(4-phenethylpiperazin-1-yl)tetrahydro-2H-pyran-4-yl)ethanol], the Ki under setting [1] is more than 0.5 µM.
Take `CC1(C)CC(C)(N2CCN(CCc3ccccc3)CC2)CCO1` (stereo not drawn) [Example 53, 1-phenethyl-4-(2,2,4-trimethyltetrahydro-2H-pyran-4-yl)piperazine]: the “μ and σ1 dual binding” value is “++”.
`CC1(C)CC(C(=O)c2ccccn2)(N2CCN(Cc3cccc(F)c3)CC2)CCO1` (stereo not drawn) [Example 61, (4-(4-(3-fluorobenzyl)piperazin-1-yl)-2,2-dimethyltetrahydro-2H-pyran-4-yl)(pyridin-2-yl)methanone]: the Ki (μ and σ1 dual binding) was less than 0.5 µM.
As for `CCC1(N2CCN(CCc3ccccn3)CC2)CCOC(C)(C)C1` (stereo not drawn) [Example 87, 1-(4-ethyl-2,2-dimethyltetrahydro-2H-pyran-4-yl)-4-(2-(pyridin-2-yl)ethyl)piperazine], the “μ and σ1 dual binding” value is reported as “++”.
For the compound `C=C(C)CCN1CCN(C2(C(=O)c3ccccn3)CCOC(C)(C)C2)CC1` (stereo not drawn) [Example 118, (2,2-Dimethyl-4-(4-(3-methylbut-3-enyl)piperazin-1-yl)tetrahydro-2H-pyran-4-yl)(pyridin-2-yl)methanone], the Ki (μ and σ1 dual binding) is less than 0.5 µM.
On the same count and under the same terms, with `O=C(c1ccccc1)C1(N2CCN(Cc3ccccc3)CC2)CCOC2(CCCC2)C1` (stereo not drawn) [Example 4, (9-(4-benzylpiperazin-1-yl)-6-oxaspiro[4.5]decan-9-yl)(phenyl)methanone] the figure was less than 0.1 µM.
`CC1(N2CCN(Cc3ccc(C#N)cc3)CC2)CCOCC1` [Example 183, 4-((4-(4-methyltetrahydro-2H-pyran-4-yl)piperazin-1-yl)methyl)benzonitrile]: the “μ and σ1 dual binding” value is “++”.
Take `CCC1(C2CCN(Cc3ccccc3)CC2)CCOC(C)(C)C1` (stereo not drawn) [Example 167, 1-Benzyl-4-(4-ethyl-2,2-dimethyltetrahydro-2H-pyran-4-yl)piperidine]: the “μ and σ1 dual binding” value is recorded as “++”.
In the case of `COc1ccc(CN2CCN(C3(C(=O)c4ccccn4)CCOCC3)CC2)cc1F` [Example 196, (4-(4-(3-fluoro-4-methoxybenzyl)piperazin-1-yl)tetrahydro-2H-pyran-4-yl)(pyridin-2-yl)methanone], the Ki under setting [1] was more than 0.5 µM.
Take `CC(C)CCN1CCN([C@@]2(C(=O)c3ccccn3)CCO[C@@H](C)C2)CC1` [Example 168]: the “μ and σ1 dual binding” value was “++”.
